The values below come from article PMC3876027 (Journal of medicinal chemistry, 2013).

Entries after “also recorded” stand apart in the source; their conditions may differ. Where only a bound is given, the exact number is not on record here.

One data set concerns human M1-M4. Kind of data set: human mAChR selectivity, functional assay at hM1-M4. Type of data set: cell-based. The following applies: for IC50: read-out: hM1-M4 IC50, each of M1, M2, M3, M4.
A further data set has as its system rat M1-M4. Kind of data set: rat mAChR selectivity, functional assay at rM1-M4. Format: cell-based.
For data set [1], the target named is T1, hM5 (Homo sapiens, UniProt P08912).
T1 sequence (P08912 1-532): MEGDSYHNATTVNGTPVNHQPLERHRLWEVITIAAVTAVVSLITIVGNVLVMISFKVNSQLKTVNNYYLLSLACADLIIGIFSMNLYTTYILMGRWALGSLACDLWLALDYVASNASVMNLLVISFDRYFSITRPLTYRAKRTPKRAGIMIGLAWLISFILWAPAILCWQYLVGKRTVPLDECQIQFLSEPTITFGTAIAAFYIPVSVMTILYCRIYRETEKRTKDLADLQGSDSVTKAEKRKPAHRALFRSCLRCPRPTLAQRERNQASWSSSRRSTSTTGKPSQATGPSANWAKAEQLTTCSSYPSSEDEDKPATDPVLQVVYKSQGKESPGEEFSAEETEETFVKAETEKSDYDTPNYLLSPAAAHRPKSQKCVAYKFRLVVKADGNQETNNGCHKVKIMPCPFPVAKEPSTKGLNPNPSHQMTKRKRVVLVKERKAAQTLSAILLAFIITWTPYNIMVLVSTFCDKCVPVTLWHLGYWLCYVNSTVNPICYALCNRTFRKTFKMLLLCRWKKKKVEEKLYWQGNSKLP
The experiment in a line: [3H]-NMS competition binding in membranes prepared from hM5 cells. The settings on record: N=3; compared to atropine.

The target in data set [2] is T1, hM5. The experiment in a line: [3H]-NMS dissociation kinetics with hM5 cell membranes. Type of data set: binding.
Data set [3] in a line: hepatic microsomal intrinsic clearance, rat. Type of data set: in vitro ADME. The settings on record: Sprague-Dawley, liver microsomes. (Microsomes from liver hold many membrane-bound enzymes, among them those of drug oxidation.)
The nature of data set [4]: hepatic microsomal intrinsic clearance, cynomolgus monkey. Format: in vitro ADME.
Data set [5] in a line: hepatic microsomal intrinsic clearance, human. The following applies: liver microsomes. Type of data set: in vitro ADME.
The nature of data set [6]: IV pharmacokinetics in male cynomolgus monkey. The following applies: plasma, 1 mg/kg. Format: in vivo.
The nature of data set [7]: Eurofins radioligand binding panel. The settings on record: panel of 68 targets.
The target of the next data set is CB1 (Homo sapiens, UniProt P21554). The experiment in a line: subsequent functional assay at CB1.
Chain of CB1 (P21554 whole entry, species assumed): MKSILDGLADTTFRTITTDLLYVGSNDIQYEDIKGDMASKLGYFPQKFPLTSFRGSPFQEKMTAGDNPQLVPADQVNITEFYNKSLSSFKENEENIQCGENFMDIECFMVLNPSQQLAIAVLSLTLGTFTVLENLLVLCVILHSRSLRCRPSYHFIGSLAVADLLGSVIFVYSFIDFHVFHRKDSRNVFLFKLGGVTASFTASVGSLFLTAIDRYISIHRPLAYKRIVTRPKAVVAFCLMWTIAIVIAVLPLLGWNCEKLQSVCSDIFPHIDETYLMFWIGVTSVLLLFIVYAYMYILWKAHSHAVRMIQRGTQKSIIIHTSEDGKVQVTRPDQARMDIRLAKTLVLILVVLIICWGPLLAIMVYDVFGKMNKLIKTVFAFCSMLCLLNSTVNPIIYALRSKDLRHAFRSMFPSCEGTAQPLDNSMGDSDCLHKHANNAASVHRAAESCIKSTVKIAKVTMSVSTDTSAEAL
The target of a further data set is T2, human M5 (Homo sapiens, UniProt P08912).
T2 sequence (P08912 1-532): T1 sequence (P08912 1-532)
Kind of data set: functional calcium mobilization assay in CHO cells stably expressing human M5. Format: cell-based. For orientation: A change in cytosolic calcium serves as a functional read-out for many receptors and channels.

Another data set addresses T3, human M1 (Homo sapiens, UniProt P11229).
T3 sequence (P11229 1-460): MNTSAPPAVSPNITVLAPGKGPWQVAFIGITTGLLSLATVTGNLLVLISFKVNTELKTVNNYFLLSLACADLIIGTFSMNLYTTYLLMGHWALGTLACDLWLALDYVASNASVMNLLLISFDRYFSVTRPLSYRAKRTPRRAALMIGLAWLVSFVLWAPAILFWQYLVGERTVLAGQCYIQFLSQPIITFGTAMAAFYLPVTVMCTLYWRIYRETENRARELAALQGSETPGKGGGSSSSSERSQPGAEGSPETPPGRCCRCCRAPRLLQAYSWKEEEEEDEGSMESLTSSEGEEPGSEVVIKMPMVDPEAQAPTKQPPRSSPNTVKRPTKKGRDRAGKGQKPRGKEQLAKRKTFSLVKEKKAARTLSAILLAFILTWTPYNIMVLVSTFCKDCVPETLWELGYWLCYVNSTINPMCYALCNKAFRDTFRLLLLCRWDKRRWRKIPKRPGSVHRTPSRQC
Kind of data set: HTS counter-screen in CHO cells expressing human M1. Type of data set: cell-based. The following applies: confirmed HTS hit sample. On the technique in general: The purpose of a counterscreen is to sort out artefacts and off-target activity.

A further data set concerns the target T4, human M4 (Homo sapiens, UniProt P08173).
T4 sequence (P08173 1-479): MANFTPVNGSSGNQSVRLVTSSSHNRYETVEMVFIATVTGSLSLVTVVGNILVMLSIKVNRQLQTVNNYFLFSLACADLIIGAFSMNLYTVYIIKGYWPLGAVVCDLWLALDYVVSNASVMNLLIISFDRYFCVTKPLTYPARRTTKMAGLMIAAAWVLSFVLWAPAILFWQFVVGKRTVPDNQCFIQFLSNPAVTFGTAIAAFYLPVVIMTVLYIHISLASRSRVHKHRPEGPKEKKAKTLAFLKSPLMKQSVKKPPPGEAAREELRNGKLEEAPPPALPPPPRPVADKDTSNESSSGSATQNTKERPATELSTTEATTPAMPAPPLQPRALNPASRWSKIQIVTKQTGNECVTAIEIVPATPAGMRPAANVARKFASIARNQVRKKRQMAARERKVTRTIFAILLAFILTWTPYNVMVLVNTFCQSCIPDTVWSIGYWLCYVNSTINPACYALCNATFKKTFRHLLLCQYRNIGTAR
Kind of data set: HTS counter-screen in CHO cells expressing human M4. Format: cell-based. The following applies: confirmed HTS hit sample.

The IC50 is the concentration that inhibits the measured activity by half. As usually defined, the CLint scaled is the capacity of the preparation to metabolise the compound, expressed as a volume cleared per time. The clearance is the volume of plasma or blood freed of the substance per unit of time. As for `O=C(c1ccc(F)c(F)c1)N1CCN2C(=O)c3ccccc3[C@@]12c1ccc(Cl)cc1` [compound 8, (S)-9b-(4-chlorophenyl)-1-(3,4-difluorobenzoyl)-2,3-dihydro-1H-imidazo[2,1-a]isoindol-5(9bH)-one], the “activity at human M1-M4” value in the data set on human M1-M4 was “inactive”. Moreover, the IC50 in the data set with human M1-M4 was > 30 µM; with rat M1-M4 (read-out: rM1-M4 IC50, each of rat M1, M2, M3, M4) it was > 30 µM. Further, the “activity at rat M1-M4” value in the data set on rat M1-M4 is “inactive”. Besides, the “competition with [3H]-NMS for binding to hM5” value on hM5 [1] is “no competition; also recorded: does not bind at the M5 orthosteric site”. The “[3H]-NMS dissociation t1/2” value on hM5 [2] (atropine (+8), N=3) was determined as 1.15 h. The “effect on the dissociation rate of [3H]-NMS” value on hM5 [2] (hM5 cell membranes) was “decreased the dissociation rate”. Also, the CLint scaled at 1 µM in data set [3] amounted to 24 mL/min/kg; in data set [5], 2.6 mL/min/kg. For the same molecule, the “Predicted CLhep” value in data set [4] (from CLint in well-stirred model, uncorrected for fraction unbound in plasma) is reported as 14 mL/min/kg. Further, the CLint scaled in data set [4] (liver microsomes) is 20 mL/min/kg. In data set [6], this molecule yielded a clearance of 3 mL/min/kg. Besides, the “number of targets with significant binding (>50% inhibition @10 μM)” value in data set [7] worked out at 1. On CB1, the “functional activity at CB1” value is reported as “no functional activity”.
As for `O=C(c1ccc(F)cc1)N1CCN2C(=O)c3ccccc3C12c1ccccc1` (centres unmarked) [compound 1], the results for the half-maximal inhibitory concentration (IC50) at human M5 and with human M1-M4 were > 10 µM and > 30 µM, respectively. Further, the “activity on M1” value at human M1 was “inactive”. The “activity on M4” value on human M4 is “inactive”.
For `O=C(c1ccc(F)c(F)c1)N1CCN2C(=O)c3ccccc3C12c1ccc(Cl)cc1` (centres unmarked) [5g], the IC50 in the data set with human M1-M4 was > 30 µM.
In the case of `O=C(c1ccc(F)c(F)c1)N1CCN2C(=O)c3ccccc3C12c1ccccc1` (centres unmarked) [4g], in the data set on human M1-M4, the IC50 was > 30 µM.
